Results taken from patent US20260027068A1, “METHODS OF ADM[…]-KETAMINE” (Perception Neuroscience, Inc., priority 2022, published 2026).

Assay: Oxygen saturation (pulse oximetry, SpO2)
Experimental: The Investigational Medicinal Product (IMP) R(−)-ketamine hydrochloride in sterile water for intravenous injection was investigated as an […] treatment of TRD. The International Union of Pure and Applied Chemistry (IUPAC) name is of the IMP is (2R)-2-(2-chlorophenyl)-2-(methylamino)cyclohexan-1-one. Subjects received the solution at either 30 mg or 60 mg dose, or a placebo. The IMP or placebo was administered on Day 1 as a single IV infusion via an electronic infusion pump over 40 minutes. The duration of study participation for each subject was up to 29 days including a screening period, a 3-day in-clinic visit, and 2 follow-up visits. 101 subjects were enrolled in approximately 20 study centers in the EU and the US.
Tympanic or temporal temperature, heart rate, blood pressure (SBP/DBP), respiratory rate, and SpO2 were assessed. Blood pressure and pulse measurements will be assessed with a completely automated device while the subject is supine or semi-supine. Manual techniques will be used only if an automated device is not available. Blood pressure and pulse measurements should be preceded by at least 5 minutes of rest for the subject in a quiet setting without distractions (e.g., television, cell phones). An abnormal blood pressure value at screening may be repeated once after 5 minutes of relaxation to determine the subject's eligibility. Blood pressure was recorded using the same arm and position (supine or semi-supine) throughout the study, where possible. Vital signs (to be taken before blood collection for laboratory tests) consisted of 1 pulse and 3 blood pressure measurements (3 consecutive blood pressure readings will be recorded at intervals of at least 1 minute). The average of the 3 blood pressure readings was recorded in the CRF. A pulse oximeter was used to measure peripheral capillary oxygen saturation (SpO2) continuously from pre-dose until 4-hours post-dose. A pulse oximeter was clipped onto the finger or foot of the subject, and light will be sent through the finger or foot and measured on the other side.
In these tables, baseline value is defined as the last non-missing value prior to study drug administration.

SMILES: CN[C@@]1(c2ccccc2Cl)CCCCC1=O.Cl [R(−)-ketamine, (2R)-2-(2-chlorophenyl)-2-(methylamino)cyclohexan-1-one]
- Oxygen Saturation, Max (30 mg, Day 1, 15 minutes): 100%
- Oxygen Saturation, Mean (30 mg, Day 1, 15 minutes): 98.3%
- Oxygen Saturation, Median (30 mg, Day 1, 15 minutes): 98.0%
- Oxygen Saturation, Min (30 mg, Day 1, 15 minutes): 96%
- Oxygen Saturation, Max (30 mg, Day 1, 40 minutes): 99%
- Oxygen Saturation, Mean (30 mg, Day 1, 40 minutes): 98.3%
- Oxygen Saturation, Median (30 mg, Day 1, 40 minutes): 98.0%
- Oxygen Saturation, Min (30 mg, Day 1, 40 minutes): 96%
- Oxygen Saturation, Max (30 mg, Day 1, 60 minutes): 100%
- Oxygen Saturation, Mean (30 mg, Day 1, 60 minutes): 98.2%
- Oxygen Saturation, Median (30 mg, Day 1, 60 minutes): 98.0%
- Oxygen Saturation, Min (30 mg, Day 1, 60 minutes): 96%
- Oxygen Saturation, Max (30 mg, Day 1, 2 hours): 100%
- Oxygen Saturation, Mean (30 mg, Day 1, 2 hours): 98.4%
- Oxygen Saturation, Median (30 mg, Day 1, 2 hours): 99.0%
- Oxygen Saturation, Min (30 mg, Day 1, 2 hours): 97%
- Oxygen Saturation, Max (30 mg, Day 1, 4 hours): 100%
- Oxygen Saturation, Mean (30 mg, Day 1, 4 hours): 98.3%
- Oxygen Saturation, Median (30 mg, Day 1, 4 hours): 98.0%
- Oxygen Saturation, Min (30 mg, Day 1, 4 hours): 96%
- Oxygen Saturation, Change from Baseline, Max (30 mg, to Day 1, 15 minutes): 2%
- Oxygen Saturation, Change from Baseline, Mean (30 mg, to Day 1, 15 minutes): −0.3%
- Oxygen Saturation, Change from Baseline, Median (30 mg, to Day 1, 15 minutes): 0.0%
- Oxygen Saturation, Change from Baseline, Min (30 mg, to Day 1, 15 minutes): −3%
- Oxygen Saturation, Change from Baseline, Max (30 mg, to Day 1, 40 minutes): 2%
- Oxygen Saturation, Change from Baseline, Mean (30 mg, to Day 1, 40 minutes): −0.4%
- Oxygen Saturation, Change from Baseline, Median (30 mg, to Day 1, 40 minutes): 0.0%
- Oxygen Saturation, Change from Baseline, Min (30 mg, to Day 1, 40 minutes): −2%
- Oxygen Saturation, Change from Baseline, Max (30 mg, to Day 1, 60 minutes): 1%
- Oxygen Saturation, Change from Baseline, Mean (30 mg, to Day 1, 60 minutes): −0.5%
- Oxygen Saturation, Change from Baseline, Median (30 mg, to Day 1, 60 minutes): 0.0%
- Oxygen Saturation, Change from Baseline, Min (30 mg, to Day 1, 60 minutes): −3%
- Oxygen Saturation, Change from Baseline, Max (30 mg, to Day 1, 2 hours): 3%
- Oxygen Saturation, Change from Baseline, Mean (30 mg, to Day 1, 2 hours): −0.2%
- Oxygen Saturation, Change from Baseline, Median (30 mg, to Day 1, 2 hours): 0.0%
- Oxygen Saturation, Change from Baseline, Min (30 mg, to Day 1, 2 hours): −2%
- Oxygen Saturation, Change from Baseline, Max (30 mg, to Day 1, 4 hours): 3%
- Oxygen Saturation, Change from Baseline, Mean (30 mg, to Day 1, 4 hours): −0.4%
- Oxygen Saturation, Change from Baseline, Median (30 mg, to Day 1, 4 hours): 0.0%
- Oxygen Saturation, Change from Baseline, Min (30 mg, to Day 1, 4 hours): −3%
- Oxygen Saturation, Max (60 mg, Day 1, 15 minutes): 100%
- Oxygen Saturation, Mean (60 mg, Day 1, 15 minutes): 98.2%
- Oxygen Saturation, Median (60 mg, Day 1, 15 minutes): 98.0%
- Oxygen Saturation, Min (60 mg, Day 1, 15 minutes): 96%
- Oxygen Saturation, Max (60 mg, Day 1, 40 minutes): 100%
- Oxygen Saturation, Mean (60 mg, Day 1, 40 minutes): 98.1%
- Oxygen Saturation, Median (60 mg, Day 1, 40 minutes): 98.0%
- Oxygen Saturation, Min (60 mg, Day 1, 40 minutes): 95%
- Oxygen Saturation, Max (60 mg, Day 1, 60 minutes): 100%
- Oxygen Saturation, Mean (60 mg, Day 1, 60 minutes): 98.1%
- Oxygen Saturation, Median (60 mg, Day 1, 60 minutes): 98.0%
- Oxygen Saturation, Min (60 mg, Day 1, 60 minutes): 95%
- Oxygen Saturation, Max (60 mg, Day 1, 2 hours): 100%
- Oxygen Saturation, Mean (60 mg, Day 1, 2 hours): 98.2%
- Oxygen Saturation, Median (60 mg, Day 1, 2 hours): 98.0%
- Oxygen Saturation, Min (60 mg, Day 1, 2 hours): 97%
- Oxygen Saturation, Max (60 mg, Day 1, 4 hours): 100%
- Oxygen Saturation, Mean (60 mg, Day 1, 4 hours): 98.3%
- Oxygen Saturation, Median (60 mg, Day 1, 4 hours): 99.0%
- Oxygen Saturation, Min (60 mg, Day 1, 4 hours): 96%
- Oxygen Saturation, Change from Baseline, Max (60 mg, to Day 1, 15 minutes): 4%
- Oxygen Saturation, Change from Baseline, Mean (60 mg, to Day 1, 15 minutes): 0.0%
- Oxygen Saturation, Change from Baseline, Median (60 mg, to Day 1, 15 minutes): 0.0%
- Oxygen Saturation, Change from Baseline, Min (60 mg, to Day 1, 15 minutes): −2%
- Oxygen Saturation, Change from Baseline, Max (60 mg, to Day 1, 40 minutes): 2%
- Oxygen Saturation, Change from Baseline, Mean (60 mg, to Day 1, 40 minutes): −0.1%
- Oxygen Saturation, Change from Baseline, Median (60 mg, to Day 1, 40 minutes): 0.0%
- Oxygen Saturation, Change from Baseline, Min (60 mg, to Day 1, 40 minutes): −2%
- Oxygen Saturation, Change from Baseline, Max (60 mg, to Day 1, 60 minutes): 3%
- Oxygen Saturation, Change from Baseline, Mean (60 mg, to Day 1, 60 minutes): −0.1%
- Oxygen Saturation, Change from Baseline, Median (60 mg, to Day 1, 60 minutes): 0.0%
- Oxygen Saturation, Change from Baseline, Min (60 mg, to Day 1, 60 minutes): −4%
- Oxygen Saturation, Change from Baseline, Max (60 mg, to Day 1, 2 hours): 3%
- Oxygen Saturation, Change from Baseline, Mean (60 mg, to Day 1, 2 hours): 0.0%
- Oxygen Saturation, Change from Baseline, Median (60 mg, to Day 1, 2 hours): 0.0%
- Oxygen Saturation, Change from Baseline, Min (60 mg, to Day 1, 2 hours): −2%
- Oxygen Saturation, Change from Baseline, Max (60 mg, to Day 1, 4 hours): 1%
- Oxygen Saturation, Change from Baseline, Mean (60 mg, to Day 1, 4 hours): 0.2%
- Oxygen Saturation, Change from Baseline, Median (60 mg, to Day 1, 4 hours): 0.0%
- Oxygen Saturation, Change from Baseline, Min (60 mg, to Day 1, 4 hours): −2%
